What was measured:
HCV replicon = HCV replicon assays; assay type: cell-based
Procedure: The 50% inhibitory concentration of an HCV inhibitor (EC50) can also be evaluated using HCV replicon assays as described in Ikeda et al., J. VIROL., 76:2997-3006 (2002), and Blight et al., SCIENCE, 290:1972-1974 (2000), with the following modifications. Replicon cells are plated at 3×10^3 cells per well in 96-well plate in DMEM medium containing 5% fetal calf serum. At day 1, culture medium is removed and replaced with fresh medium containing eight serial 2-fold dilutions of the compound of interest. The final concentration of DMSO in medium is 0.5%. The untreated control culture is treated in an identical manner except no inhibitor is added to the medium. Plates are incubated in a CO2 incubator at 37° C. On Day 4, 100 μl lysis buffer (RTL) (Qiagen) is added to each well after removal of culture medium. RNA is purified according to manufacturer's recommendations (Qiagen RNAeasy) and eluted in 200 μl of water. The HCV RNA level is quantified from a portion (5 μl out of 200 μl) of the purified RNA by real-time RT-PCR method. The primers and probe are derived from specific sequence in the 5′UTR region. RT-PCR reaction is performed at 48° C. for 30 min, followed by 40 cycles set to 95° C., 15 s; 54° C., 30 s; and 72° C., 40 s. […]

[1] = liver concentrations after oral dosing in rats; assay type: in vivo, Male Sprague-Dawley derived rats; conditions: rat; for concentration at 1 h / concentration at 12 h / concentration at 24 h: male, Sprague-Dawley, liver, 5 mg/kg oral; for EC50 multiple: ratio of post 24-hour liver concentration over EC50 value: EC50 from HCV replicon assays
Procedure: Compounds I, II and III were prepared as a solution in a DMSO: PEG-400 vehicle at a concentration of 5 mg/mL shortly before oral dosing. Male Sprague-Dawley derived rats, weighing 250-350 grams, were obtained from Charles River Laboratories, Inc. (Wilmington, Mass.). The animals were fasted overnight prior to dosing and throughout the study period, but were allowed water ad libitum. Animals were allowed chow ad libitum post 12 hr. Each study used a group of 3 rats. Each rat received a 5 mg/kg (1 mL/kg) oral dose of compound I, II or III administered by gavage. At selected time points after dosing, groups of three rats were euthanized with CO2 and exsanguinated by cardiac puncture. The entire liver tissue from each animal was removed and placed in a labeled plastic container. Groups of rats were sacrificed 1, 12 and 24 hours after drug administration. The liver samples were stored on ice (about 4° C.), and then assayed for the concentration of each compound using high performance liquid chromatographic procedures.

HCV 1b-N replicon cells = assay: passage of HCV 1b-N replicon cells with compounds alone or in combination, absence of neomycin; assay type: cell-based; conditions: individual compounds or agents at 10 to 20-fold above their respective EC50
Procedure: The effect of compound I on HCV replicon was evaluated alone or in combination with other anti-HCV agents. […] The EC50 values represent the 50% inhibitory concentrations of these compounds/agents in replicon cell assays.

| Compound | higher potency in the inhibition of HCV replication as compared to 1-Benzyl-4-hydroxy-3-[7-(hydroxymethyl)-1,1-dioxido-4H-thieno[2,3-e][1,2,4]thiadiazin-3-yl]quinolin-2(1H)-one (HCV replicon) | EC50 (HCV replicon; Hepatitis C virus, read-out: 50% inhibitory concentration (EC50), HCV replicon assays) [nM] | concentration at 1 h [1] [ng/g] | concentration at 12 h [1] [ng/g] | concentration at 24 h [1] [ng/g] | liver concentration of compound I relative to those of compounds II and III ([1]; 24 hours after oral dosing) | EC50 multiple: ratio of post 24-hour liver concentration over EC50 value ([1]; 24 hours after oral dosing) | HCV RNA levels during treatment (HCV 1b-N replicon cells) | elimination of HCV RNA from replicon cells (HCV 1b-N replicon cells) |
| --- | --- | --- | --- | --- | --- | --- | --- | --- | --- |
| CS(=O)(=O)NCc1csc2c1S(=O)(=O)N=C(c1c(O)c3ccccc3n(NC3CCC3)c1=O)N2 [compound I, N-[(3-{1-[(cyclobutyl)amino]-4-hydroxy-2-oxo-1,2-dihydro-quinolin-3-yl}-1,1-dioxo-1,4-dihydro-1λ^6-thieno[2,3-e][1,2,4]thiadiazin-7-yl)methyl]methanesulfonamide] | about 100 fold | ~2.5 | 18700 | 19200 | 2420 | 8-20 times | more than 1.800 fold | significantly reduced | none of them eliminated the HCV RNA |
| CS(=O)(=O)NCc1csc2c1S(=O)(=O)N=C(c1c(O)c3ccccc3n(NCC3CC3)c1=O)N2 [compound II, N-[(3-{1-[(cyclopropylmethyl)amino]-4-hydroxy-2-oxo-1,2-dihydroquinolin-3-yl}-1,1-dioxido-4H-thieno[2,3-e][1,2,4]thiadiazin-7-yl)methyl]methanesulfonamide] | – | – | 18900 | 7920 | 120 | – | significantly lower than that of compound I | – | – |
| CS(=O)(=O)Nc1ccc2c(c1)S(=O)(=O)N=C(c1c(O)c3ccccc3n(NC3CCC3)c1=O)N2 [compound III, N-{3-[1-(cyclobutylamino)-4-hydroxy-2-oxo-1,2-dihydroquinolin-3-yl]-1,1-dioxido-4H-1,2,4-benzothiadiazin-7-yl}methanesulfonamide] | – | – | 8790 | 4140 | 280 | – | significantly lower than that of compound I | – | – |
| CCC[C@H](NC(=O)C1[C@H]2CCC[C@H]2CN1C(=O)[C@@H](NC(=O)[C@@H](NC(=O)c1cnccn1)C1CCCCC1)C(C)(C)C)C(=O)C(=O)NC1CC1 (stereo partly shown) [compound VX-950] | – | – | – | – | – | – | – | significantly reduced | none of them eliminated the HCV RNA |

Source: patent publication US7951800B2, “Anti-infective agents” (Abbott Laboratories, Inc., priority 2006, dated 2011)
